Test results reported in ChEMBL document CHEMBL4706583, “2-Anilinoquinoline based arylamides as broad spectrum anticancer agents with B-RAF/C-RAF kinase inhibitory effects: Design, synthesis, in vitro cell-based and oncogenic kinase assessments” (Eur J Med Chem, 2020).

Columns and labels:
HCT-116 = assay: Growth inhibition of human HCT-116 cells measured after 48 hrs by SRB assay; type: functional
OVCAR-8 = assay: Growth inhibition of human OVCAR-8 cells measured after 48 hrs by SRB assay; type: functional
HCT-15 = assay: Growth inhibition of human HCT-15 cells measured after 48 hrs by SRB assay; type: functional
UACC-257 = assay: Growth inhibition of human UACC-257 cells measured after 48 hrs by SRB assay; type: functional
OVCAR-5 = assay: Growth inhibition of human OVCAR-5 cells measured after 48 hrs by SRB assay; type: functional
MDA-MB-435 = assay: Growth inhibition of human MDA-MB-435 cells measured after 48 hrs by SRB assay; type: functional
CCRF-CEM = assay: Growth inhibition of human CCRF-CEM cells measured after 48 hrs by SRB assay; type: functional
Malme-3M = assay: Growth inhibition of human Malme-3M cells measured after 48 hrs by SRB assay; type: functional
RXF 393 = assay: Growth inhibition of human RXF 393 cells measured after 48 hrs by SRB assay; type: functional
MOLT-4 = assay: Growth inhibition of human MOLT-4 cells measured after 48 hrs by SRB assay; type: functional
SK-MEL-5 = assay: Growth inhibition of human SK-MEL-5 cells measured after 48 hrs by SRB assay; type: functional
EKVX = assay: Growth inhibition of human EKVX cells measured after 48 hrs by SRB assay; type: functional
SF-539 = assay: Growth inhibition of human SF-539 cells measured after 48 hrs by SRB assay; type: functional
T47D = assay: Growth inhibition of human T47D cells measured after 48 hrs by SRB assay; type: functional
K562 = assay: Growth inhibition of human K562 cells measured after 48 hrs by SRB assay; type: functional
SK-MEL-28 = assay: Growth inhibition of human SK-MEL-28 cells measured after 48 hrs by SRB assay; type: functional
HCC 2998 = assay: Growth inhibition of human HCC 2998 cells measured after 48 hrs by SRB assay; type: functional
NCI-H522 = assay: Growth inhibition of human NCI-H522 cells measured after 48 hrs by SRB assay; type: functional
A498 = assay: Growth inhibition of human A498 cells measured after 48 hrs by SRB assay; type: functional
HOP-92 = assay: Growth inhibition of human HOP-92 cells measured after 48 hrs by SRB assay; type: functional
PC-3 = assay: Growth inhibition of human PC-3 cells measured after 48 hrs by SRB assay; type: functional
NCI-H23 = assay: Growth inhibition of human NCI-H23 cells measured after 48 hrs by SRB assay; type: functional
SR = assay: Growth inhibition of human SR cells measured after 48 hrs by SRB assay; type: functional
MCF7 = assay: Growth inhibition of human MCF7 cells measured after 48 hrs by SRB assay; type: functional
LOX IMVI = assay: Growth inhibition of human LOX IMVI cells measured after 48 hrs by SRB assay; type: functional
ACHN = assay: Growth inhibition of human ACHN cells measured after 48 hrs by SRB assay; type: functional
UO-31 = assay: Growth inhibition of human UO-31 cells measured after 48 hrs by SRB assay; type: functional
786-0 = assay: Growth inhibition of human 786-0 cells measured after 48 hrs by SRB assay; type: functional
HOP-62 = assay: Growth inhibition of human HOP-62 cells measured after 48 hrs by SRB assay; type: functional
SW-620 = assay: Growth inhibition of human SW-620 cells measured after 48 hrs by SRB assay; type: functional
NCI-H226 = assay: Growth inhibition of human NCI-H226 cells measured after 48 hrs by SRB assay; type: functional
COLO 205 = assay: Growth inhibition of human COLO 205 cells measured after 48 hrs by SRB assay; type: functional
U-251 = assay: Growth inhibition of human U-251 cells measured after 48 hrs by SRB assay; type: functional
SNB-75 = assay: Growth inhibition of human SNB-75 cells measured after 48 hrs by SRB assay; type: functional
IGROV-1 = assay: Growth inhibition of human IGROV-1 cells measured after 48 hrs by SRB assay; type: functional
OVCAR-3 = assay: Growth inhibition of human OVCAR-3 cells measured after 48 hrs by SRB assay; type: functional
CAKI-1 = assay: Growth inhibition of human CAKI-1 cells measured after 48 hrs by SRB assay; type: functional
TK-10 = assay: Growth inhibition of human TK-10 cells measured after 48 hrs by SRB assay; type: functional
NCI/ADR-RES = assay: Growth inhibition of human NCI/ADR-RES cells measured after 48 hrs by SRB assay; type: functional
MDA-MB-231 = assay: Growth inhibition of human MDA-MB-231 cells measured after 48 hrs by SRB assay; type: functional
SK-OV-3 = assay: Growth inhibition of human SK-OV-3 cells measured after 48 hrs by SRB assay; type: functional
A549 = assay: Growth inhibition of human A549 cells measured after 48 hrs by SRB assay; type: functional
BT-549 = assay: Growth inhibition of human BT-549 cells measured after 48 hrs by SRB assay; type: functional
DU-145 = assay: Growth inhibition of human DU-145 cells measured after 48 hrs by SRB assay; type: functional
RPMI-8226 = assay: Growth inhibition of human RPMI-8226 cells measured after 48 hrs by SRB assay; type: functional
Hs-578T = assay: Growth inhibition of human Hs-578T cells measured after 48 hrs by SRB assay; type: functional
HL-60(TB) = assay: Growth inhibition of human HL-60(TB) cells measured after 48 hrs by SRB assay; type: functional
SN12C = assay: Growth inhibition of human SN12C cells measured after 48 hrs by SRB assay; type: functional
NCI-H460 = assay: Growth inhibition of human NCI-H460 cells measured after 48 hrs by SRB assay; type: functional
KM12 = assay: Growth inhibition of human KM12 cells measured after 48 hrs by SRB assay; type: functional
UACC-62 = assay: Growth inhibition of human UACC-62 cells measured after 48 hrs by SRB assay; type: functional
M14 = assay: Growth inhibition of human M14 cells measured after 48 hrs by SRB assay; type: functional
OVCAR-4 = assay: Growth inhibition of human OVCAR-4 cells measured after 48 hrs by SRB assay; type: functional
SK-MEL-2 = assay: Growth inhibition of human SK-MEL-2 cells measured after 48 hrs by SRB assay; type: functional
NCI-H322M = assay: Growth inhibition of human NCI-H322M cells measured after 48 hrs by SRB assay; type: functional
SF-295 = assay: Growth inhibition of human SF-295 cells measured after 48 hrs by SRB assay; type: functional
SNB-19 = assay: Growth inhibition of human SNB-19 cells measured after 48 hrs by SRB assay; type: functional
HT-29 = assay: Growth inhibition of human HT-29 cells measured after 48 hrs by SRB assay; type: functional
[1] = biological target: RAF proto-oncogene serine/threonine-protein kinase (Homo sapiens, UniProt P04049); assay: Inhibition of human CRAF at 10 uM using MEK1 (K97R) as substrate in presence of [gamma-33P]ATP by scintillation counting method relative to control
[2] = tested on: Serine/threonine-protein kinase B-raf (Homo sapiens), P15056 [V600E]; assay: Inhibition of human BRAF V600E mutant at 10 uM using MEK1 (K97R) as substrate in presence of [gamma-33P]ATP by scintillation counting method relative to control
[3] = biological target: Serine/threonine-protein kinase B-raf (Homo sapiens, UniProt P15056); assay: Inhibition of human BRAF at 10 uM using MEK1 (K97R) as substrate in presence of [gamma-33P]ATP by scintillation counting method relative to control
Sequence of Serine/threonine-protein kinase B-raf (P15056 whole entry): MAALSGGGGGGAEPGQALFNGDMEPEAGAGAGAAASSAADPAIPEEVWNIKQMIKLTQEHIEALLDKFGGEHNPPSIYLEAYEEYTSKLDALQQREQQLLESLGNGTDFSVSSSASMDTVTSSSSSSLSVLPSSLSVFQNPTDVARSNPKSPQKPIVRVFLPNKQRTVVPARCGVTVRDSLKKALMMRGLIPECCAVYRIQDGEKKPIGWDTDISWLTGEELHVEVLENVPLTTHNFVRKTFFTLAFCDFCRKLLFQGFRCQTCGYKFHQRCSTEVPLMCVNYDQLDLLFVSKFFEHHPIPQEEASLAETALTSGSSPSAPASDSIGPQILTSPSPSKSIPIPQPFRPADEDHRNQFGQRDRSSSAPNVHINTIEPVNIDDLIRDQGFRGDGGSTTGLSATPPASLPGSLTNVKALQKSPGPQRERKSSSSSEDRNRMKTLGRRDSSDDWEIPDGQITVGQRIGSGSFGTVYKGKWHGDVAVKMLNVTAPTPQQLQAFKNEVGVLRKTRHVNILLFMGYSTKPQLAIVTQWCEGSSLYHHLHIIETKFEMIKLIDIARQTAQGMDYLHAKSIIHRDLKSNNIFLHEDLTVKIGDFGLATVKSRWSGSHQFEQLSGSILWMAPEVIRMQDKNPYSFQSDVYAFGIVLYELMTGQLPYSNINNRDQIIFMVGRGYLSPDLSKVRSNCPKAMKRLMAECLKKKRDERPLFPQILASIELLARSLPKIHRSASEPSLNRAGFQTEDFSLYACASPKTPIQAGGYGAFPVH

Sequence of Serine/threonine-protein kinase B-raf (Homo sapiens), P15056 [V600E] (P15056 whole entry V600E): as the sequence (P15056 whole entry) above, with V600E counted along it
Sequence of RAF proto-oncogene serine/threonine-protein kinase (P04049 whole entry): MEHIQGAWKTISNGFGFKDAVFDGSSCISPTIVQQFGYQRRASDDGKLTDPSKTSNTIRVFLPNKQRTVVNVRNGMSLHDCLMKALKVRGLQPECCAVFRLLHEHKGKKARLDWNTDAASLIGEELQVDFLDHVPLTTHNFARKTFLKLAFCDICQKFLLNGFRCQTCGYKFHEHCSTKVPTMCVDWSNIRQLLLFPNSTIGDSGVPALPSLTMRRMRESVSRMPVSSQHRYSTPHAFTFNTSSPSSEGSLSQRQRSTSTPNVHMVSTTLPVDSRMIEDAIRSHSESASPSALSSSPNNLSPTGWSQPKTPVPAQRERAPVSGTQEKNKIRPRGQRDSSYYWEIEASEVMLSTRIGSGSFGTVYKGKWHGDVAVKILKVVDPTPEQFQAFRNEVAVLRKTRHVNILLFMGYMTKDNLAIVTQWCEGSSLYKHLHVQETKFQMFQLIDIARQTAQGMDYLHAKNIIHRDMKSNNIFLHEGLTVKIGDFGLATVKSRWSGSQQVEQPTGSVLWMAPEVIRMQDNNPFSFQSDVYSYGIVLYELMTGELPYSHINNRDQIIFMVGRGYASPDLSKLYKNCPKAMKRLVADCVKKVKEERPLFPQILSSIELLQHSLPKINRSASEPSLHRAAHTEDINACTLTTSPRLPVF

Q: Which GI50 (HCT-116) does the source give for Cc1ccc(NC(=O)c2ccc(CN3CCN(C)CC3)cc2)cc1Nc1nccc(-c2cccnc2)n1 [IMATINIB] here?
A: 12.6 µM

Q: What about the GI50 (OVCAR-8) of the same molecule?
A: 27.7 µM

Q: What about the GI50 (HCT-15) of the same molecule?
A: 19.9 µM

Q: What about the GI50 (UACC-257) of the same molecule?
A: 21.1 µM

Q: And the GI50 (OVCAR-5)?
A: 0.58 µM

Q: And the GI50 (MDA-MB-435)?
A: 17.9 µM

Q: What about the GI50 (CCRF-CEM) of the same molecule?
A: 17 µM

Q: And the GI50 (Malme-3M)?
A: 16.3 µM

Q: And the GI50 (RXF 393)?
A: 15.1 µM

Q: And the GI50 (MOLT-4)?
A: 5.13 µM

Q: What about the GI50 (SK-MEL-5) of the same molecule?
A: 12.1 µM

Q: And the GI50 (EKVX)?
A: 26.2 µM

Q: What about the GI50 (SF-539) of the same molecule?
A: 10.6 µM

Q: What about the GI50 (T47D) of the same molecule?
A: 19.9 µM

Q: And the GI50 (K562)?
A: 0.02 µM

Q: And the GI50 (SK-MEL-28)?
A: 14.6 µM

Q: What about the GI50 (HCC 2998) of the same molecule?
A: 21.2 µM

Q: And the GI50 (NCI-H522)?
A: 16.4 µM

Q: And the GI50 (A498)?
A: 22 µM

Q: What about the GI50 (HOP-92) of the same molecule?
A: 13.3 µM

Q: And the GI50 (PC-3)?
A: 21.4 µM

Q: What about the GI50 (NCI-H23) of the same molecule?
A: 15 µM

Q: What about the GI50 (SR) of the same molecule?
A: 7.14 µM

Q: And the GI50 (MCF7)?
A: 18.2 µM

Q: What about the GI50 (LOX IMVI) of the same molecule?
A: 18.1 µM

Q: What about the GI50 (ACHN) of the same molecule?
A: 25.2 µM

Q: And the GI50 (UO-31)?
A: 22.3 µM

Q: What about the GI50 (786-0) of the same molecule?
A: 16 µM

Q: And the GI50 (HOP-62)?
A: 21.5 µM

Q: And the GI50 (SW-620)?
A: 23.4 µM

Q: What about the GI50 (NCI-H226) of the same molecule?
A: 18.1 µM

Q: And the GI50 (COLO 205)?
A: 17.6 µM

Q: And the GI50 (U-251)?
A: 18 µM

Q: And the GI50 (SNB-75)?
A: 20.3 µM

Q: What about the GI50 (IGROV-1) of the same molecule?
A: 21.2 µM

Q: And the GI50 (OVCAR-3)?
A: 34.2 µM

Q: What about the GI50 (CAKI-1) of the same molecule?
A: 34 µM

Q: And the GI50 (TK-10)?
A: 26.9 µM

Q: What about the GI50 (NCI/ADR-RES) of the same molecule?
A: 23 µM

Q: What about the GI50 (MDA-MB-231) of the same molecule?
A: 18.7 µM

Q: And the GI50 (SK-OV-3)?
A: 28.9 µM

Q: What about the GI50 (A549) of the same molecule?
A: 24.5 µM

Q: And the GI50 (BT-549)?
A: 16.1 µM

Q: What about the GI50 (DU-145) of the same molecule?
A: 18.8 µM

Q: And the GI50 (RPMI-8226)?
A: 6.05 µM

Q: What about the GI50 (Hs-578T) of the same molecule?
A: 14.6 µM

Q: And the GI50 (HL-60(TB))?
A: 13.5 µM

Q: And the GI50 (SN12C)?
A: 33.2 µM

Q: And the GI50 (NCI-H460)?
A: 16.2 µM

Q: And the GI50 (KM12)?
A: 18.8 µM

Q: And the GI50 (UACC-62)?
A: 19 µM

Q: What about the GI50 (M14) of the same molecule?
A: 19.3 µM

Q: What about the GI50 (OVCAR-4) of the same molecule?
A: 20 µM

Q: What about the GI50 (SK-MEL-2) of the same molecule?
A: 25 µM

Q: What about the GI50 (NCI-H322M) of the same molecule?
A: 22.8 µM

Q: What about the GI50 (SF-295) of the same molecule?
A: 19.8 µM

Q: What about the GI50 (SNB-19) of the same molecule?
A: 38.6 µM

Q: What about the GI50 (HT-29) of the same molecule?
A: 3.97 µM

Q: With COc1cc2cc(Oc3ccc(NC(=O)c4cc(C(F)(F)F)cc(C(F)(F)F)c4)cc3)c(C)nc2cc1OC as the molecule, how does the GI50 (HCT-116) read?
A: 1.56 µM

Q: What about the GI50 (SK-MEL-5) of the same molecule?
A: 2.76 µM

Q: And the GI50 (A498)?
A: 1.13 µM

Q: And the GI50 (HOP-92)?
A: 1.82 µM

Q: And the GI50 (PC-3)?
A: 1.66 µM

Q: And the inhibition [1]?
A: 76.7%

Q: What about the inhibition [2] of the same molecule?
A: < 47%

Q: What about the GI50 (BT-549) of the same molecule?
A: 3.02 µM

Q: And the GI50 (RPMI-8226)?
A: 1.57 µM

Q: What about the inhibition [3] of the same molecule?
A: < 47%

Q: What about the GI50 (OVCAR-4) of the same molecule?
A: 4.53 µM

Q: And the GI50 (SF-295)?
A: 1.64 µM
